The values that follow come from PMC8273887 (Journal of Medicinal Chemistry, 2021).

Some results are limits rather than exact numbers.

Data set [1] can be described thus: Stability in simulated gastric fluid (SGF). The data set is classed as in vitro ADME, porcine. Conditions: simulated gastric fluid (SGF) with pepsin, pH 1.3, 15 μL of 1 mM peptide stock in 285 μL SGF, 37 °C, samples 0 min-24 h quenched with 0.2 M Na2CO3, RP-HPLC/LC-MS peak area as % of time 0, exponential one-phase decay fit, read-out: t1/2 in SGF. The method, then:
(§1) We exposed TFF3(C^57Acm) and TFF3 homodimer to simulated gastric fluid (SGF, containing pepsin, pH 1.3) and simulated intestinal fluid (SIF, containing pancreatic enzymes, pH 6.8), and monitored the mixture over 24 h by analytical RP-HPLC and MS. The N- and C-termini of TFF3 and its homodimer were readily truncated in both SGF and SIF (Figure 4A,B). In SGF, TFF3 was cleaved at Leu^6/Ser^7 followed by cleavage at Glu^54/Ala^55 (t1/2 < 5 min). In SIF, TFF3 was cleaved first at Thr^58/Phe^59 followed by cleavage at Leu^6/Ser^7, Glu^56/Cys^57, and Ala^55/Glu^56 (t1/2 < 5 min). TFF3 homodimer, in both SGF (t1/2 ∼ 40 min) and SIF (t1/2 < 5 min), was first broken down to monomeric TFF3 through simultaneous cleavage at Leu^6 and Glu^54 or Ala^55, eventually leading to the same metabolites as TFF3 (Figure 4B).
(§2) Simulated gastric fluid (SGF) was prepared by dissolving 20 mg of NaCl and 8 mg of pepsin in 70 μL of concentrated HCl (32%), and the volume was diluted to 10 mL with Milli-Q water (pH 1.3).[76],[77] Simulated intestinal fluid (SIF) was prepared by dissolving 68 mg of KH2PO4 in 500 μL of Milli-Q water followed by the addition of 800 μL of 0.2 M NaOH and 100 mg of porcine pancreatin, and the volume was adjusted to 10 mL with Milli-Q water (pH 6.8).[76],[77] Peptide stock solution (1 mM; 15 μL) was added to SGF (285 μL) or SIF (285 μL) and incubated at 37 °C. Samples (30 μL) from SGF and SIF were taken at 0, 5, 15, and 30 min and 1, 2, 4, 8, and 24 h timepoints and subsequently quenched with 30 μL of 0.2 M Na2CO3 (SGF) or 30 μL of 5% aqueous TFA (SIF). The samples were analyzed by analytical RP-HPLC (30 μL) and/or LC-MS (20 μL). The amount of peptide remaining was determined by measuring the peak area and expressing it as a % of the peak area at time 0. Peptide half-life (t1/2) was determined from the peptide degradation profiles using an exponential one-phase decay fit in Prism (version 7, GraphPad, La Jolla). LC-MS analysis was performed in a Q-Star Pulsar mass spectrometer (SCIEX, Ontario, Canada), and the raw data spectra were processed using the peptide reconstruction tool in the BioAnalyst software to identify the mass of the metabolites. The stability of the disulfide bonds was assessed through incubation of the peptides (10 μM) with 10 equiv of reduced glutathione (GSH; 100 μM) in sodium phosphate (50 mM) buffer at pH 7.2. Samples were taken at timepoints 0, 4, 8, and 24 h, quenched by adding 10% TFA, and analyzed by analytical RP-HPLC using an analytical C3 column (Agilent Zorbax SB-C3, 5 μm, 2.1 mm × 250 mm, 300 Å).

In another data set the target is T1, CXCR4 (Homo sapiens, UniProt P61073).
T1 construct: expressed in transfected cells; host or cells: COS-7 (African green monkey), transient co-transfection with GαΔ6qi4myr
As to the kind of experiment: Inositol 1 phosphate (IP1) accumulation assay (HTRF) in COS-7 cells transfected with CXCR4. The data set is classed as cell-based. Conditions: 5 min preincubation with peptide (1 or 10 μM final), then CXCL12 10^-12 to 10^-5 M; COS-7/CXCR4; IP1 HTRF. From the text: CXCR4 is a member of the G protein-coupled receptor (GPCR) family[58] and proposed as a target receptor for TFF3 to mediate wound healing.[30],[39] We therefore pharmacologically characterized TFF3(C^57Acm) and TFF3 homodimer at CXCR4. We used a chimeric Gαiq protein to switch the pathway to the Gαq signaling, which leads to the activation of the phospholipase and allows measurement of CXCR4 activation through the production of inositol 1 phosphate (IP1).[61]−[63] We measured IP1 accumulation upon stimulation with TFF3(C^57Acm) and TFF3 homodimer in fibroblast-like COS-7 cells transiently transfected with CXCR4.[58] This is a competitive immunoassay, based on the HTRF technology, where native IP1 produced by cells compete with labeled IP1 (acceptor) for binding to anti-IP1-cryptate (donor). The specific signal (i.e., Förster resonance energy transfer, FRET) is inversely proportional to the concentration of IP1 in the sample. The calculation of the fluorescence ratio eliminates possible medium interferences.[64]
COS-7 cells (fibroblast-like cells from African green monkey) were transiently co-transfected with the CXCR4 C-terminally fused to eYFP in pVitro2 vector and the untagged chimeric G protein GαΔ6qi4myr in pcDNA3.1 plasmid using Metafectene Pro according to manufacturer’s protocol. The cells were cultured in DMEM with higher glucose and supplemented with 10% FCS without any antibiotics at 37 °C and 5% CO2 in 95% humidity. Cisbio IP-One Gq assay kit was used according to previous description with minor modifications to measure activity.[80] Briefly, a standard curve was prepared in HBSS (Hanks’ balanced salt solution) with 20 mM LiCl to determine the linear range of the assay and 10 000 cells/well were cultured overnight in a 384-well flat white plate (Greiner Bio-one GmbH, Frickenhausen, Germany). TFF3 and its homodimer as well as CXCL12 were diluted in HBSS containing 20 mM LiCl. Stimulation was carried out for 1 h in triplicate at 37 °C. Subsequently, 3 μL of IP1-d2 and 3 μL of Ab-cryptate in lysis buffer were added to the wells and incubated on a tumbler for 60 min at 25 °C. Fluorescence was then measured at 620 and 665 nm and the HTRF (homogeneous time-resolved fluorescence) ratio (665/620 nm) was calculated. Data analysis was performed with Prism (version 7, GraphPad, La Jolla). Tested compounds were normalized to CXCL12 wild type, with the highest HTRF ratio set to 0% and the lowest HTRF ratio set to 100% response. […] The final concentration range of 10^–12 to 10^–5 M to CXCL12 and 1 or 10 μM to TFF3(C^57Acm) and TFF3 homodimer was achieved by adding the compounds from a threefold concentrated stock solution.
Background: TR-FRET usually uses a lanthanide donor and a delayed reading to cut background.

The test system of another data set is human erythrocytes. The data set can be described thus: Hemolysis analysis. It is filed as cell-based. The following applies: 1 h, 37 °C, absorbance 405 nm, 0.2–25 μM final concentration, two independent experiments. From the text:
Considering the therapeutic potential of TFF3, it was important to determine any cytotoxic and hemolytic effects early on to avoid problems in later stages of drug development. We therefore assessed cytotoxicity on HEK-293 cells and hemolytic effects in human erythrocytes. We treated the cells with TFF3(C^57Acm) and TFF3 homodimer and used resazurin, a blue dye that produces strong fluorescence when reduced by living cells, as the readout of the number of viable cells.[60] In the hemolytic assay, we evaluated hemoglobin release, an indicator of erythrocyte lysis, upon exposure to the peptides.
Monomeric and homodimeric TFF3 were serially diluted twofold in 0.9% NaCl and seeded (25 μL) in a 384-well polypropylene plate (0.2–25 μM final concentration). […] The cells were counted using a Neubauer hemocytometer and then diluted to 1 × 10^8/mL in 0.9% NaCl. […] Following incubation, the plates were centrifuged at 1000g for 10 min to pellet cells and debris and then 25 μL of the supernatant was transferred into a 384-well flat-bottom PS plate and absorbance (Abs) was read at 405 nm using a Tecan M1000 Pro monochromator plate reader. Percent hemolysis was calculated using the following equation: Hemolysis (%) = (Abssample – Absnegative/Abspositive – Absnegative) × 100. […]

Data set [2] is described as follows: Stability in simulated intestinal fluid (SIF). The data set is classed as in vitro ADME. The following applies: pig, simulated intestinal fluid (SIF) with porcine pancreatin, pH 6.8, 15 μL of 1 mM peptide stock in 285 μL SIF, 37 °C, samples 0 min-24 h quenched with 5% aqueous TFA, RP-HPLC/LC-MS peak area as % of time 0, exponential one-phase decay fit, read-out: t1/2 in SIF. The procedure:
as §1, §2

The target of data set [3] is chemokine receptor type 4 (CXCR4), C-terminally fused to eYFP (UniProt P61073).
Chain of chemokine receptor type 4 (CXCR4), C-terminally fused to eYFP (P61073 whole entry, the tested form may be a part): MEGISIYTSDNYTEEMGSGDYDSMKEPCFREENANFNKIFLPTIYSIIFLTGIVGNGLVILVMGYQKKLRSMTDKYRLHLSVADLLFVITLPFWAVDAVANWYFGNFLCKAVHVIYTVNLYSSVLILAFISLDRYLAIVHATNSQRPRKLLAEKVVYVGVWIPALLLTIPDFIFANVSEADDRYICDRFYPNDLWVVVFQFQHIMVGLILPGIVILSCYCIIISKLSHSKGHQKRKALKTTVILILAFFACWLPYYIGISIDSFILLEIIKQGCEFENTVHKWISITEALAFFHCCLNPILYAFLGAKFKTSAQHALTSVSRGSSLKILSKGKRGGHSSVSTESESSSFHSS

Chain of C-X-C motif chemokine 12 (CXCL12), recombinant human, with an additional N-terminal methionine (P48061 other isoform, or with tags, fused parts or gaps): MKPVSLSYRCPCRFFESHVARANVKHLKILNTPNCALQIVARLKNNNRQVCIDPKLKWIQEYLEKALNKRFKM
T1 sequence (P61073 whole entry): as the sequence (P61073 whole entry, the tested form may be a part) above

As for `CC[C@H](C)[C@@H]1NC(=O)[C@H](CCCNC(=N)N)NC(=O)[C@H](CO)NC(=O)[C@H](CC(=O)O)NC(=O)[C@H](Cc2ccccc2)NC(=O)[C@@H]2CSSC[C@H](NC(=O)[C@H](CCC(N)=O)NC(=O)[C@H](CC(N)=O)NC(=O)[C@H](C)NC(=O)[C@H](CO)NC(=O)[C@H](CC(C)C)NC(=O)CNC(=O)[C@@H](NC(=O)[C@H](Cc3ccc(O)cc3)NC(=O)[C@H](CCC(=O)O)NC(=O)[C@@H](N)CCC(=O)O)C(C)C)C(=O)N[C@@H](C)C(=O)N[C@@H](C(C)C)C(=O)N3CCC[C@H]3C(=O)N[C@@H](C)C(=O)N[C@@H](CCCCN)C(=O)N[C@@H](CC(=O)O)C(=O)N[C@@H](CCCNC(=N)N)C(=O)N[C@@H](C(C)C)C(=O)N[C@@H](CC(=O)O)C(=O)N[C@H]3CSSC[C@H](NC(=O)CNC(=O)[C@H](CCCNC(=N)N)NC(=O)[C@H](CC(N)=O)NC(=O)[C@H](CC(N)=O)NC(=O)[C@H](CSSC[C@@H](C(=O)N[C@@H](Cc4ccccc4)C(=O)N[C@@H](CCCCN)C(=O)N4CCC[C@H]4C(=O)N[C@@H](CC(C)C)C(=O)N[C@@H](CCC(N)=O)C(=O)N[C@@H](CCC(=O)O)C(=O)N[C@@H](C)C(=O)N[C@@H](CCC(=O)O)C(=O)N[C@@H](CSSC[C@H](NC(=O)[C@H](CCC(=O)O)NC(=O)[C@H](C)NC(=O)[C@H](CCC(=O)O)NC(=O)[C@H](CCC(N)=O)NC(=O)[C@H](CC(C)C)NC(=O)[C@@H]4CCCN4C(=O)[C@H](CCCCN)NC(=O)[C@H](Cc4ccccc4)NC(=O)[C@@H]4CSSC[C@@H]5NC(=O)[C@H](CCC(=O)O)NC(=O)[C@H](CCCCN)NC(=O)[C@@H]6CCCN6C(=O)[C@H]([C@@H](C)O)NC(=O)[C@H](C(C)C)NC(=O)[C@H](Cc6c[nH]cn6)NC(=O)[C@@H]6CCCN6C(=O)[C@H](Cc6ccc(O)cc6)NC(=O)CNC(=O)[C@@H]6CSSC[C@H](NC(=O)CNC(=O)[C@H](CCCNC(=N)N)NC(=O)[C@H](CC(N)=O)NC(=O)[C@H](CC(N)=O)NC5=O)C(=O)N[C@@H](CSSC[C@H](NC(=O)[C@H](CCC(N)=O)NC(=O)[C@H](CC(N)=O)NC(=O)[C@H](C)NC(=O)[C@H](CO)NC(=O)[C@H](CC(C)C)NC(=O)CNC(=O)[C@@H](NC(=O)[C@H](Cc5ccc(O)cc5)NC(=O)[C@H](CCC(=O)O)NC(=O)[C@@H](N)CCC(=O)O)C(C)C)C(=O)N[C@@H](C)C(=O)N[C@@H](C(C)C)C(=O)N5CCC[C@H]5C(=O)N[C@@H](C)C(=O)N[C@@H](CCCCN)C(=O)N[C@@H](CC(=O)O)C(=O)N[C@@H](CCCNC(=N)N)C(=O)N[C@@H](C(C)C)C(=O)N[C@@H](CC(=O)O)C(=O)N6)C(=O)N[C@@H](Cc5ccccc5)C(=O)N[C@@H](CC(=O)O)C(=O)N[C@@H](CO)C(=O)N[C@@H](CCCNC(=N)N)C(=O)N[C@@H]([C@@H](C)CC)C(=O)N5CCC[C@H]5C(=O)NCC(=O)N[C@@H](C(C)C)C(=O)N5CCC[C@H]5C(=O)N[C@@H](Cc5c[nH]c6ccccc56)C(=O)N4)C(=O)N[C@H](C(=O)N[C@@H](Cc4ccccc4)C(=O)O)[C@@H](C)O)C(=O)N[C@H](C(=O)N[C@@H](Cc4ccccc4)C(=O)O)[C@@H](C)O)NC(=O)[C@H](Cc4c[nH]c5ccccc45)NC(=O)[C@@H]4CCCN4C(=O)[C@H](C(C)C)NC(=O)CNC(=O)[C@@H]4CCCN4C1=O)NC(=O)[C@H](CCC(=O)O)NC(=O)[C@H](CCCCN)NC(=O)[C@@H]1CCCN1C(=O)[C@H]([C@@H](C)O)NC(=O)[C@H](C(C)C)NC(=O)[C@H](Cc1c[nH]cn1)NC(=O)[C@@H]1CCCN1C(=O)[C@H](Cc1ccc(O)cc1)NC(=O)CNC3=O)C(=O)N2` [TFF3 homodimer], the half-life at 50 μM in data set [1] was approximately 40 min; in data set [2], less than 5 min. In addition, the “effect on the EC50 of CXCL12 at CXCR4 (antagonism)” value on CXCR4 was “not affected”. For the same molecule, the “concentration up to which no hemolytic effect was displayed” value with human erythrocytes is more than 25 µM.

The molecule “C-X-C motif chemokine 12 (CXCL12), recombinant human, with an additional N-terminal methionine (from UniProt P48061 22-93) (ligand)” came in with an EC50 of IP1 accumulation (HTRF, IP-One Gq kit) in COS-7 cells transfected with CXCR4 and a chimeric G protein; CXCL12 10^-12 to 10^-5 M in data set [3] of 5.9 nM.
